Results reported in ChEMBL document CHEMBL3745645, “Synthesis, in vitro antitumor activity, dihydrofolate reductase inhibition, DNA intercalation and structure-activity relationship studies of 1,3,5-triazine analogues” (Bioorg Med Chem Lett, 2016).
Calls of active or inactive are those of the source. The calls are words filed in the database; no cut-off is given here.

Tests used:
[1] = Cytotoxicity against human RXF393 cells at 10 uM after 48 hrs by SRB assay; assay type: functional; conditions: RXF 393, 48 h, read-out: GI
MCF7 [2] = assay: Cytotoxicity against human MCF7 cells at 10 uM after 48 hrs by SRB assay; assay type: functional; conditions: MCF7, 48 h, read-out: GI
T47D = assay: Cytotoxicity against human T47D cells at 10 uM after 48 hrs by SRB assay; assay type: functional; conditions: read-out: GI
MDA-MB-468 = assay: Cytotoxicity against human MDA-MB-468 cells at 10 uM after 48 hrs by SRB assay; assay type: functional; conditions: MDA-MB-468, 48 h, read-out: GI
K562 = assay: Cytotoxicity against human K562 cells at 10 uM after 48 hrs by SRB assay; assay type: functional; conditions: K562, 48 h, read-out: GI
[3] = Cytotoxicity against human MOLT4 cells at 10 uM after 48 hrs by SRB assay; assay type: functional; conditions: MOLT-4, 48 h, read-out: GI
SR [4] = assay: Cytotoxicity against human SR cells at 10 uM after 48 hrs by SRB assay; assay type: functional
A549 [5] = assay: Cytotoxicity against human A549 cells at 10 uM after 48 hrs by SRB assay; assay type: functional; conditions: A549, 48 h, read-out: GI
[6] = Cytotoxicity against human HOP92 cells at 10 uM after 48 hrs by SRB assay; assay type: functional; conditions: HOP-92, 48 h, read-out: GI
NCI-H226 = assay: Cytotoxicity against human NCI-H226 cells at 10 uM after 48 hrs by SRB assay; assay type: functional; conditions: NCI-H226, 48 h, read-out: GI
NCI-H322M = assay: Cytotoxicity against human NCI-H322M cells at 10 uM after 48 hrs by SRB assay; assay type: functional; conditions: read-out: GI
NCI-H460 = assay: Cytotoxicity against human NCI-H460 cells at 10 uM after 48 hrs by SRB assay; assay type: functional; conditions: NCI-H460, 48 h, read-out: GI
NCI-H522 = assay: Cytotoxicity against human NCI-H522 cells at 10 uM after 48 hrs by SRB assay; assay type: functional; conditions: NCI-H522, 48 h, read-out: GI
[7] = Cytotoxicity against human HCT116 cells at 10 uM after 48 hrs by SRB assay; assay type: functional; conditions: HCT-116, 48 h, read-out: GI
HT-29 = assay: Cytotoxicity against human HT-29 cells at 10 uM after 48 hrs by SRB assay; assay type: functional; conditions: HT-29, 48 h, read-out: GI
KM12 = assay: Cytotoxicity against human KM12 cells at 10 uM after 48 hrs by SRB assay; assay type: functional; conditions: KM12, 48 h, read-out: GI
[8] = Cytotoxicity against human SF539 cells at 10 uM after 48 hrs by SRB assay; assay type: functional; conditions: SF-539, 48 h, read-out: GI
[9] = Cytotoxicity against human SNB19 cells at 10 uM after 48 hrs by SRB assay; assay type: functional; conditions: SNB-19, 48 h, read-out: GI
[10] = Cytotoxicity against human SNB75 cells at 10 uM after 48 hrs by SRB assay; assay type: functional; conditions: SNB-75, 48 h, read-out: GI
U-251 = assay: Cytotoxicity against human U251 cells at 10 uM after 48 hrs by SRB assay; assay type: functional; conditions: U-251, 48 h, read-out: GI
Malme-3M = assay: Cytotoxicity against human MALME-3M cells at 10 uM after 48 hrs by SRB assay; assay type: functional; conditions: read-out: GI
MDA-MB-435 = assay: Cytotoxicity against human MDA-MB-435 cells at 10 uM after 48 hrs by SRB assay; assay type: functional; conditions: MDA-MB-435, 48 h, read-out: GI
[11] = Cytotoxicity against human IGROV1 cells at 10 uM after 48 hrs by SRB assay; assay type: functional; conditions: IGROV-1, 48 h, read-out: GI
[12] = Cytotoxicity against human OVCAR3 cells at 10 uM after 48 hrs by SRB assay; assay type: functional; conditions: OVCAR-3, 48 h, read-out: GI
[13] = Cytotoxicity against human OVCAR5 cells at 10 uM after 48 hrs by SRB assay; assay type: functional; conditions: OVCAR-5, 48 h, read-out: GI
786-0 [14] = assay: Cytotoxicity against human 786-0 cells at 10 uM after 48 hrs by SRB assay; assay type: functional; conditions: 786-0, 48 h, read-out: GI
ACHN = assay: Cytotoxicity against human ACHN cells at 10 uM after 48 hrs by SRB assay; assay type: functional; conditions: read-out: GI
[15] = Cytotoxicity against human HL-60(TB) cells after 48 hrs by SRB assay; assay type: functional; conditions: HL-60, 48 h, read-out: LC50 (the source's name)
[16] = Cytotoxicity against human RPMI8226 cells after 48 hrs by SRB assay; assay type: functional; conditions: RPMI-8226, 48 h, read-out: LC50 (the source's name)
SR [17] = assay: Cytotoxicity against human SR cells after 48 hrs by SRB assay; assay type: functional
A549 [18] = assay: Cytotoxicity against human A549 cells after 48 hrs by SRB assay; assay type: functional; conditions: A549, 48 h, pooled result: one value given for 8 cell lines, strains, targets or settings
[19] = Cytotoxicity against human COLO205 cells after 48 hrs by SRB assay; assay type: functional; conditions: COLO 205, 48 h, pooled result: one value given for 7 cell lines, strains, targets or settings
[20] = Cytotoxicity against human IGROV1 cells after 48 hrs by SRB assay; assay type: functional; conditions: IGROV-1, 48 h, pooled result: one value given for 7 cell lines, strains, targets or settings
786-0 [21] = assay: Cytotoxicity against human 786-0 cells after 48 hrs by SRB assay; assay type: functional; conditions: 786-0, 48 h, pooled result: one value given for 8 cell lines, strains, targets or settings
[22] = Cytotoxicity against human PC3 cells after 48 hrs by SRB assay; assay type: functional; conditions: PC-3, 48 h
MCF7 [23] = assay: Cytotoxicity against human MCF7 cells after 48 hrs by SRB assay; assay type: functional; conditions: MCF7, 48 h, pooled result: one value given for 6 cell lines, strains, targets or settings
Dihydrofolate reductase = target: T1, Dihydrofolate reductase (Homo sapiens, UniProt P00374); assay: Inhibition of human recombinant DHFR expressed in Escherichia coli by spectrophotometric analysis
T1 sequence (P00374 whole entry): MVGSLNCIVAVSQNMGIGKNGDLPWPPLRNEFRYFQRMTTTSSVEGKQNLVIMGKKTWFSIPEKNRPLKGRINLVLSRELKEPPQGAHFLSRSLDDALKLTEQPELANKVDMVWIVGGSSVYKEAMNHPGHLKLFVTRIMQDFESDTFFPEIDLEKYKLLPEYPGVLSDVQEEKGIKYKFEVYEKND

Calf thymus DNA [24] = assay: Binding affinity to calf thymus DNA by UV-vis spectrometric analysis; assay type: nucleic-acid assay; conditions: Bos taurus
Calf thymus DNA [25] = assay: Binding affinity to calf thymus DNA by fluorescence spectrophotometric analysis; assay type: nucleic-acid assay; conditions: Bos taurus
[26] = pooled result: one value given for 2 cell lines, strains, targets or settings

Question: Which inhibition of growth at 10 µM [1] does the source give for `Cc1nc2ccc(Nc3nc(NCCN)nc(Nc4ccc(F)cc4)n3)cc2n1Cc1ccccc1` here?
Answer: 25.8%

Question: And the inhibition of growth at 10 µM (MCF7 [2])?
Answer: 39.1%

Question: What about the inhibition of growth at 10 µM (T47D) of the same compound?
Answer: 23.2%

Question: What about the inhibition of growth at 10 µM (MDA-MB-468) of the same compound?
Answer: 49.5%

Question: And the inhibition of growth at 10 µM (K562)?
Answer: 61.3%

Question: What about the inhibition of growth at 10 µM [3] of the same compound?
Answer: 40.7%

Question: What about the inhibition of growth at 10 µM (SR [4]; read-out: GI) of the same compound?
Answer: 88.9%

Question: And the inhibition of growth at 10 µM (A549 [5])?
Answer: 13.2%

Question: What about the inhibition of growth at 10 µM [6] of the same compound?
Answer: 56.8%

Question: What about the inhibition of growth at 10 µM (NCI-H226) of the same compound?
Answer: 13.8%

Question: And the inhibition of growth at 10 µM (NCI-H322M)?
Answer: 7.76%

Question: And the inhibition of growth at 10 µM (NCI-H460)?
Answer: 21.8%

Question: And the inhibition of growth at 10 µM (NCI-H522)?
Answer: 31%

Question: What about the inhibition of growth at 10 µM [7] of the same compound?
Answer: 39.7%

Question: What about the inhibition of growth at 10 µM (HT-29) of the same compound?
Answer: 55.5%

Question: What about the inhibition of growth at 10 µM (KM12) of the same compound?
Answer: 26.8%

Question: What about the inhibition of growth at 10 µM [8] of the same compound?
Answer: 0.19%

Question: What about the inhibition of growth at 10 µM [9] of the same compound?
Answer: 10.1%

Question: And the inhibition of growth at 10 µM [10]?
Answer: 20%

Question: What about the inhibition of growth at 10 µM (U-251) of the same compound?
Answer: 46.5%

Question: And the inhibition of growth at 10 µM (Malme-3M)?
Answer: 26%

Question: And the inhibition of growth at 10 µM (MDA-MB-435)?
Answer: 9.38%

Question: What about the inhibition of growth at 10 µM [11] of the same compound?
Answer: 0.38%

Question: And the inhibition of growth at 10 µM [12]?
Answer: 6.85%

Question: What about the inhibition of growth at 10 µM [13] of the same compound?
Answer: 6.17%

Question: And the inhibition of growth at 10 µM (786-0 [14])?
Answer: 20.5%

Question: What about the inhibition of growth at 10 µM (ACHN) of the same compound?
Answer: 8.19%

Question: What does the source list for `Cc1nc2cc(Nc3nc(Nc4ccc(F)cc4)nc(-c4ccc(Cl)cc4)n3)ccc2n1Cc1ccccc1`?
Answer: inhibition of growth at 10 µM [1]: 31.5%; inhibition of growth at 10 µM (MCF7 [2]): 57.6%; inhibition of growth at 10 µM (T47D): 69.3%; inhibition of growth at 10 µM (MDA-MB-468): 25.7%; CC50 [15]: > 100 µM; CC50 [16]: > 100 µM; LC50 (concentration killing 50% of cells) (SR [17]): > 100 µM; GI50 (A549 [18]): 8.37 µM; LC50 (A549 [18]): 83.8 µM; TGI (A549 [18]): 38.6 µM; GI50 [19]: 4.97 µM; LC50 [19]: > 100 µM; TGI [19]: 59.8 µM; GI50 [20]: 6.1 µM; LC50 (concentration killing 50% of cells) [20]: 65.4 µM; TGI [20]: 24.4 µM; GI50 (786-0 [21]): 11.5 µM; LC50 (concentration killing 50% of cells) (786-0 [21]): > 100 µM; TGI (786-0 [21]): 45.4 µM; LC50 [22]: > 100 µM; GI50 [22, 26]: 13.5 µM; TGI [22, 26]: > 100 µM; GI50 (MCF7 [23]): 6.46 µM; LC50 (concentration killing 50% of cells) (MCF7 [23]): > 100 µM; TGI (MCF7 [23]): 50.8 µM; IC50 (Dihydrofolate reductase): 42.4 µM; Ka (Calf thymus DNA [24]): 3.39 ×10⁴ /M; Ka (Calf thymus DNA [25]): 1.97 ×10⁴ /M; inhibition of growth at 10 µM (K562): 66.3%; inhibition of growth at 10 µM [3]: 99.2%; growth inhibition (GI) (SR [4]): Active; inhibition of growth at 10 µM (A549 [5]): 42.6%; inhibition of growth at 10 µM [6]: 65%; inhibition of growth at 10 µM (NCI-H226): 13.5%; inhibition of growth at 10 µM (NCI-H322M): 5.98%; inhibition of growth at 10 µM (NCI-H460): 28.9%; inhibition of growth at 10 µM (NCI-H522): 17.2%; inhibition of growth at 10 µM [7]: 49.7%; inhibition of growth at 10 µM (HT-29): 44.2%; inhibition of growth at 10 µM (KM12): 62.8%; inhibition of growth at 10 µM [8]: 7.42%; inhibition of growth at 10 µM [9]: 16.6%; inhibition of growth at 10 µM [10]: 34.8%; inhibition of growth at 10 µM (U-251): 30.3%; inhibition of growth at 10 µM (Malme-3M): 27.5%; inhibition of growth at 10 µM (MDA-MB-435): 33.8%; inhibition of growth at 10 µM [11]: 51.3%; inhibition of growth at 10 µM [12]: 42.7%; inhibition of growth at 10 µM [13]: 7.71%; inhibition of growth at 10 µM (786-0 [14]): 8.96%; inhibition of growth at 10 µM (ACHN): 28.4%
